Assay results published in publication PMC4579270, “Identification and Characterization of an Irreversible Inhibitor of CDK2” (Chemistry & Biology, 2015).

Legend:
Test in all cases: Dundee protein kinase screen
Format in all cases: biochemical
[1] = biological target: T1, NUAK1 (Homo sapiens, UniProt O60285); settings: NUAK1, 1µM; read-out: %Remaining activity at 1µM NU6300
T1 sequence (O60285 1-661): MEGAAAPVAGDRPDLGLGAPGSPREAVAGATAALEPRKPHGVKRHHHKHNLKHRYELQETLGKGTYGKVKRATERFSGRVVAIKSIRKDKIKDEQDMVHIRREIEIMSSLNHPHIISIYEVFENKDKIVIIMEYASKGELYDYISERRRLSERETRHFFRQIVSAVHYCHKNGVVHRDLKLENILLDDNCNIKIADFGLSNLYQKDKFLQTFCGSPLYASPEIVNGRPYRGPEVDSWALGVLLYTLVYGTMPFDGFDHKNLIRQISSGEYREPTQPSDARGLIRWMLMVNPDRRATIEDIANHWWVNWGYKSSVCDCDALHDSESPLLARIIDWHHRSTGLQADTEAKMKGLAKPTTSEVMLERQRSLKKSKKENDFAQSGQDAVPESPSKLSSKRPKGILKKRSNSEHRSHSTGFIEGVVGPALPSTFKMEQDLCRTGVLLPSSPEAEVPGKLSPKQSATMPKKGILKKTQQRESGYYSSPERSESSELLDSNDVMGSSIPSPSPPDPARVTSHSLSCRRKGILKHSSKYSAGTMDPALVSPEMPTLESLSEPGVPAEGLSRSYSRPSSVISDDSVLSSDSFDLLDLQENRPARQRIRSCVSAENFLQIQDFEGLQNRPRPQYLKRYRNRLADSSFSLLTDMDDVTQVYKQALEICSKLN
Protocol: (§1) Prior to determining its cellular activity, we carried out a screen to assess its selectivity against a panel of 131 protein kinases under conditions that would not distinguish between a reversible or irreversible mode of action. […] These 13 kinases and 29 additional kinases, selected for their known sensitivity to other inhibitors within the purine series, were then tested in a modified screening format in which the assay was repeated following a 4-hr pre-incubation (Table S3B). […] However, conformational flexibility around the active site may promote such an interaction with a residue from another part of the structure ([Martin et al., 2012]).
(§2) Table S3, Related to Figure 4. NCL-0006300 protein kinase selectivity. (A) NU6300 was tested at a single concentration of 1µM against 131 protein kinases present in a Dundee protein kinase screen (Bain et al., 2007). Values given are % activity remaining and are the average of duplicate measurements: 0-25% (red), 26-50% (yellow), 51-80% […]
(§3) (black) and above 81% (green). […]

[2] = biological target: STK33 (Homo sapiens, UniProt Q9BYT3); settings: STK33, 1µM; read-out: %Remaining activity at 1µM NU6300
Protocol: as §1, §2, §3

[3] = biological target: PAK5 (Homo sapiens, UniProt Q9P286); settings: PAK5, 1µM; read-out: %Remaining activity at 1µM NU6300
Protocol: as §1, §2, §3

[4] = biological target: SYK (Homo sapiens, UniProt P43405); settings: read-out: %Remaining activity at 1µM NU6300
Protocol: as §1, §2, §3

[5] = biological target: SIK2 (Homo sapiens, UniProt Q9H0K1); settings: SIK2, 1µM; read-out: %Remaining activity at 1µM NU6300
Protocol: as §1, §2, §3

[6] = biological target: PAK6 (Homo sapiens, UniProt Q9NQU5); settings: PAK6, 1µM; read-out: %Remaining activity at 1µM NU6300
Protocol: as §1, §2, §3

[7] = biological target: Src (Homo sapiens, UniProt P12931); settings: read-out: %Remaining activity at 1µM NU6300
Protocol: as §1, §2, §3

[8] = biological target: T2, TTK (Homo sapiens, UniProt P33981); settings: read-out: %Remaining activity at 1µM NU6300
T2 sequence (P33981 1-857): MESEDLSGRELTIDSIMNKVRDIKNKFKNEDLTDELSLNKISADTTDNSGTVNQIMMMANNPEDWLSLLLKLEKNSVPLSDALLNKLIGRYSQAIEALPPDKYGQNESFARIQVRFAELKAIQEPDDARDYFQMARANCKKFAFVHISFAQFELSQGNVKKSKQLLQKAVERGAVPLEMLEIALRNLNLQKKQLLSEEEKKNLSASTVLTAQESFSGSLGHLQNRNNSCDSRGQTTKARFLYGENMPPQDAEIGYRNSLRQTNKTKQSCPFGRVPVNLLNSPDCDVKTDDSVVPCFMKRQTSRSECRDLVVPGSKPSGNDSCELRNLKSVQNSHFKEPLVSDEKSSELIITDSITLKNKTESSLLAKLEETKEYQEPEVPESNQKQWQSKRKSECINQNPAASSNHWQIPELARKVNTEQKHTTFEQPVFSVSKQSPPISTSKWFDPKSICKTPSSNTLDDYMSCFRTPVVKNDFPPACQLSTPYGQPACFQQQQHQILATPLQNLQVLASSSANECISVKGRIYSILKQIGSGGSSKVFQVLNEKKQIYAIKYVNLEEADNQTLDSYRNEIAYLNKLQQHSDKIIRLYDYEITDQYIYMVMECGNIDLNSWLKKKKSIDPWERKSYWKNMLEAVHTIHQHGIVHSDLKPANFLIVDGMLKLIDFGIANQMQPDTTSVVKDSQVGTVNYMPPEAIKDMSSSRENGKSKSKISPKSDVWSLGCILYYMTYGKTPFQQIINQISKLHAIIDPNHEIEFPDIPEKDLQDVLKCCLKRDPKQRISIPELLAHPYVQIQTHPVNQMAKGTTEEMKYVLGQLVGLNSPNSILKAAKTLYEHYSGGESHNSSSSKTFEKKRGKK
Protocol: as §1, §2, §3

[9] = biological target: MNK2 (Homo sapiens, UniProt Q9HBH9); settings: MNK2, 1µM; read-out: %Remaining activity at 1µM NU6300
Protocol: as §1, §2, §3

[10] = tested on: PHK
Protocol: as §1, §2, §3

[11] = biological target: PKCγ (Homo sapiens, UniProt P05129); settings: read-out: %Remaining activity at 1µM NU6300
Protocol: as §1, §2, §3

[12] = biological target: NEK2a (Homo sapiens, UniProt P51955); settings: read-out: %Remaining activity at 1µM NU6300
Protocol: as §1, §2, §3

[13] = biological target: MPSK1 (Homo sapiens, UniProt O75716); settings: MPSK1, 1µM; read-out: %Remaining activity at 1µM NU6300
Protocol: as §1, §2, §3

[14] = biological target: MST4 (Homo sapiens, UniProt Q9P289); settings: MST4, 1µM; read-out: %Remaining activity at 1µM NU6300
Protocol: as §1, §2, §3

[15] = biological target: OSR1 (Homo sapiens, UniProt O95747); settings: OSR1, 1µM; read-out: %Remaining activity at 1µM NU6300
Protocol: as §1, §2, §3

Sequence of PAK5 (Q9P286 whole entry): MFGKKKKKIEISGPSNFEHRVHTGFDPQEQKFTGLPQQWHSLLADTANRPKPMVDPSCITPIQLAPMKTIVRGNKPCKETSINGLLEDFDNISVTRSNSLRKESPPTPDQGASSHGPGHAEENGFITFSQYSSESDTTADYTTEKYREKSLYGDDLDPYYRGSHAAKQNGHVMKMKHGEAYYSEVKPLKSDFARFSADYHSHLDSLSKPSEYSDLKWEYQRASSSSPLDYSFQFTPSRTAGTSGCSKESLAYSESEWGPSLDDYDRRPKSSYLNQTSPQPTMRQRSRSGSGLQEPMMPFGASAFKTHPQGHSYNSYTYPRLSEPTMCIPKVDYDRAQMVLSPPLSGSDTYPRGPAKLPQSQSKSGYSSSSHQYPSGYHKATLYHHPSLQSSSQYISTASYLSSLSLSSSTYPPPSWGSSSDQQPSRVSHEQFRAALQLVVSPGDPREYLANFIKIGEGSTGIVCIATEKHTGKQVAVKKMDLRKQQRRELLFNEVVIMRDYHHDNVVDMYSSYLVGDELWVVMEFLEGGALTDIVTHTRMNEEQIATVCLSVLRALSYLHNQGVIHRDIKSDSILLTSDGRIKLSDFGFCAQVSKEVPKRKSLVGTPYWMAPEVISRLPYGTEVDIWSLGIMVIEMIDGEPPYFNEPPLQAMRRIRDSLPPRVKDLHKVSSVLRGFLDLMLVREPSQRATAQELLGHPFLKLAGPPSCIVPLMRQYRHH
Sequence of OSR1 (O95747 whole entry): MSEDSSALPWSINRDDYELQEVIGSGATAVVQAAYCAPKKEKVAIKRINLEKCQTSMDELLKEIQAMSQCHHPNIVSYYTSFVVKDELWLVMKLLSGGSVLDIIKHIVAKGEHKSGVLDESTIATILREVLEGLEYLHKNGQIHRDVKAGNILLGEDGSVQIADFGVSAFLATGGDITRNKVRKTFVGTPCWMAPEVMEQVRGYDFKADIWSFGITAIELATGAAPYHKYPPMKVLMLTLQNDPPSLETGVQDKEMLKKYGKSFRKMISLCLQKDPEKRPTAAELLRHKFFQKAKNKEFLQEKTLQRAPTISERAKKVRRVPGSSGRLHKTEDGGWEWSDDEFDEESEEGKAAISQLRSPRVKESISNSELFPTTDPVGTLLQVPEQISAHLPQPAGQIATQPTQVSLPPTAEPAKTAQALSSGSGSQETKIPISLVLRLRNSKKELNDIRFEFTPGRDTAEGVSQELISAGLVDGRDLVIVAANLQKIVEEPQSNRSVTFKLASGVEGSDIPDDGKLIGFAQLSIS
Sequence of PAK6 (Q9NQU5 whole entry): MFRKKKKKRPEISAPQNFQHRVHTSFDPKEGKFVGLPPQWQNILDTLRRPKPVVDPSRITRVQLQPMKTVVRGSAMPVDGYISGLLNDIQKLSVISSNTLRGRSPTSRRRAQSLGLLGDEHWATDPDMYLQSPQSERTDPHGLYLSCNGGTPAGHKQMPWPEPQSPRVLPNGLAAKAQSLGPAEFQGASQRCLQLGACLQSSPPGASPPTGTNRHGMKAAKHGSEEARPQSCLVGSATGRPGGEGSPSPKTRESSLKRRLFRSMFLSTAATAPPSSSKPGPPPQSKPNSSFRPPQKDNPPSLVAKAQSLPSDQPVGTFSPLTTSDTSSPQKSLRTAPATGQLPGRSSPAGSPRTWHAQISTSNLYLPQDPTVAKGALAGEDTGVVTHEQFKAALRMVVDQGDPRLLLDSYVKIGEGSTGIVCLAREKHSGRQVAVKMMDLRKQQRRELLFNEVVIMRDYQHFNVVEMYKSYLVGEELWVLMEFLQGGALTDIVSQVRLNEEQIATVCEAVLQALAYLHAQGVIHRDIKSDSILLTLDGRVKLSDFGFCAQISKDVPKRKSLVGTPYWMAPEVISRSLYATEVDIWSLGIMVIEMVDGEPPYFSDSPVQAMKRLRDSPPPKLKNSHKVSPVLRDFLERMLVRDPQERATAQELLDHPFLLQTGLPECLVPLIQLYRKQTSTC
Sequence of STK33 (Q9BYT3 whole entry): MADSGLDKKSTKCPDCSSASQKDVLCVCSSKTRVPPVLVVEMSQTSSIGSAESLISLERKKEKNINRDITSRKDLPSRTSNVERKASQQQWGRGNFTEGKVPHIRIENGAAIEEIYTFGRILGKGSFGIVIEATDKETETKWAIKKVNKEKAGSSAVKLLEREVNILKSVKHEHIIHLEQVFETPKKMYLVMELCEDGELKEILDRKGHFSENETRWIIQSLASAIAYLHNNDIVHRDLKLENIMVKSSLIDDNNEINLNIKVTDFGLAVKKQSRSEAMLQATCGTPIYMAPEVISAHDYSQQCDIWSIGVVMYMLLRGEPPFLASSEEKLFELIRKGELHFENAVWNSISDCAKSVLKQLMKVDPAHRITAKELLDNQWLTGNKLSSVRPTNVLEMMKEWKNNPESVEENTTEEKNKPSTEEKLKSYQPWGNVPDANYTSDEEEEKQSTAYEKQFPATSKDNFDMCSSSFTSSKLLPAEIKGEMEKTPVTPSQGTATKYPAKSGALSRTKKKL
Sequence of MPSK1 (O75716 whole entry): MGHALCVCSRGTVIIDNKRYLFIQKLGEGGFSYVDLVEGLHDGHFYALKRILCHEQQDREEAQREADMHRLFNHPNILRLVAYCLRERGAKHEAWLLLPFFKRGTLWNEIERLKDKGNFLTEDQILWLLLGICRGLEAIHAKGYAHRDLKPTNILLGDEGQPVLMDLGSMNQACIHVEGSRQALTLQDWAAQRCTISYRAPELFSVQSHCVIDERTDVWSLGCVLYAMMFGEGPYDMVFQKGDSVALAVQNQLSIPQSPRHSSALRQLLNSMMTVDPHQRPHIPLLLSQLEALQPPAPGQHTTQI
Sequence of Src (P12931 whole entry): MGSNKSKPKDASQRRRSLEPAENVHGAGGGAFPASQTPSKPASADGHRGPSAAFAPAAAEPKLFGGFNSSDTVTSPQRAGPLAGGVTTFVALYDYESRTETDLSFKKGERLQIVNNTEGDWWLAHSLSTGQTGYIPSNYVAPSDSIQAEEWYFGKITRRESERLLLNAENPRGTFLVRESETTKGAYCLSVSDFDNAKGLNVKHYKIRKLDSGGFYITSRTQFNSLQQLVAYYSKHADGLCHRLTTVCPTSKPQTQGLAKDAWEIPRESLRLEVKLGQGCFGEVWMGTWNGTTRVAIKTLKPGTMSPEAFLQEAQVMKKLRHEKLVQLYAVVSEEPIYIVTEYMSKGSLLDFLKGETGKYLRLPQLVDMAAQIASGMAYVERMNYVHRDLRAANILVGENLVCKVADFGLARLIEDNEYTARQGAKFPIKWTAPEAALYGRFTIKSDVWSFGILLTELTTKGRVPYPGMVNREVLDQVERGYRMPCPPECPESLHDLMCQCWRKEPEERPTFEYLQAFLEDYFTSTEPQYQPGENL
Sequence of MNK2 (Q9HBH9 whole entry): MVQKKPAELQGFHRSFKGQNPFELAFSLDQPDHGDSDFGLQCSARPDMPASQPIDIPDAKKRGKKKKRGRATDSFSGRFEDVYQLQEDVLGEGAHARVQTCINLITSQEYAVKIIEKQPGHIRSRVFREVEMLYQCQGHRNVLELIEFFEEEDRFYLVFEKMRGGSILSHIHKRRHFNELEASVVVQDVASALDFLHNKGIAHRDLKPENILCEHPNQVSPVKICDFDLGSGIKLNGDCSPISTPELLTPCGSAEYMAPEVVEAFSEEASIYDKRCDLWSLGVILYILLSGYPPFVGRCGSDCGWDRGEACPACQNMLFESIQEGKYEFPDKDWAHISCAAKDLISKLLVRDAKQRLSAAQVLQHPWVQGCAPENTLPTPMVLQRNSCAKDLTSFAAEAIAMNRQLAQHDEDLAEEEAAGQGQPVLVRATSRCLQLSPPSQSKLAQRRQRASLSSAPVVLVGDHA
Sequence of MST4 (Q9P289 whole entry): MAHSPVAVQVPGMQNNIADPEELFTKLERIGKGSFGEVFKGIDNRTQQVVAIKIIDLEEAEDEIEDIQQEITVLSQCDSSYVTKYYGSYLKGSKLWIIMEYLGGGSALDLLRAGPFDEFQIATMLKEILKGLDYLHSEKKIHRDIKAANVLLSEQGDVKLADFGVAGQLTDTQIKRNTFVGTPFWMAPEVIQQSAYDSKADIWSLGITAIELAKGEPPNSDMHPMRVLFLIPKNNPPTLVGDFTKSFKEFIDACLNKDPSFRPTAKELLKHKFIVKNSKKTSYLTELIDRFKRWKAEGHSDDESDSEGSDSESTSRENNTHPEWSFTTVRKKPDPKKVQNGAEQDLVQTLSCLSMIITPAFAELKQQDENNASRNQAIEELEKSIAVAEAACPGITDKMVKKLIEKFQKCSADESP

`C=CS(=O)(=O)c1ccc(Nc2nc(OCC3CCCCC3)c3nc[nH]c3n2)cc1` [NU6300, 6-(cyclohexylmethoxy)-N-(4-(vinylsulfonyl)phenyl)-9H-purin-2-amine] showed a remaining activity at 1 µM [1] of 2%, a remaining activity at 1 µM [2] of 59% and a remaining activity at 1 µM [3] of 48%. It also gave a remaining activity at 1 µM [4] of 58%, a remaining activity at 1 µM [5] of 22% and a remaining activity at 1 µM [6] of 73%. It also gave a remaining activity at 1 µM [7] of 39%, a remaining activity at 1 µM [8] of 29% and a remaining activity at 1 µM [9] of 91%. For the same molecule, the “%Remaining activity at 1µM NU6300” value [10] was 69%, the remaining activity at 1 µM [11] was 104% and the remaining activity at 1 µM [12] was 55%. The remaining activity at 1 µM [13] was 92%, the remaining activity at 1 µM [14] was 39% and the remaining activity at 1 µM [15] was 67%.
